# Reference: ChEMBL document CHEMBL1201862, “PubChem BioAssay data set” (2004)
# Counter-ions that a name gives are not always drawn. Calls of active or inactive are those of the source.
# Tests used:
# [1] = molecular target: T1, Cytochrome P450 1A2 (Homo sapiens, UniProt P05177);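 further: PubChem cytochrome P450 panel assay, CYP1A2 panel member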
# T1 sequence (P05177 whole entry): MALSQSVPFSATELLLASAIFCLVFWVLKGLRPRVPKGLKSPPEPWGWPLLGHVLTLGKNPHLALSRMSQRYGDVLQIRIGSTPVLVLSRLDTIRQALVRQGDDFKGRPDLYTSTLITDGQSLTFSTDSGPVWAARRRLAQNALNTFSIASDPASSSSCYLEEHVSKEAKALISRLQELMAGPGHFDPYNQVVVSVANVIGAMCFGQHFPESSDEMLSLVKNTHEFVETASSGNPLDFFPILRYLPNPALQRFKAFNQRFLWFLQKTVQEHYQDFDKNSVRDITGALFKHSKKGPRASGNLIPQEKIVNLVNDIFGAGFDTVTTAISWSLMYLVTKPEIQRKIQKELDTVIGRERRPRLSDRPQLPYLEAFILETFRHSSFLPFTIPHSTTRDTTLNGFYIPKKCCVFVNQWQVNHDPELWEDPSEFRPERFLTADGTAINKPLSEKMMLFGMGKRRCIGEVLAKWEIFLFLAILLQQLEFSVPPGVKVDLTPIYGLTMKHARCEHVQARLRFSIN
# [2] = molecular target: Cytochrome P450 2C19 (Homo sapiens, UniProt P33261); test: Cytochrome panel assay with activity outcomes. Panel member name: p450-cyp2c19 Compounds with AC50 equal or less than 10 uM are considered active; type: functional; settings: read-out: AC50
# [3] = molecular target: Sphingosine 1-phosphate receptor 2 (Homo sapiens, UniProt O95136); test: Dose Response Cell Based Assay for Agonists of the S1P2 Receptor. [Related pubchem assays: 729, 736, 843 ]; type: functional
# [4] = molecular target: Metabotropic glutamate receptor 7 (Homo sapiens, UniProt Q14831); test: mGlu7 positive allosteric modulators, dose response, cell-based, calcium mobilization, Galpha15 (AID 743384); type: functional
# [5] = cytotoxicity toward HCT116 cells – cell-based, CellTiter-Glo luminescence, IC50, dose response (AID 1117332); type: functional; settings: HCT-116
# [6] = Concentration-dependent survival of SW480 colon cancer line, luminescence detection with CellTiter-Glo, half-maximal inhibitory concentration (AID 1117338); type: functional
# [7] = SNU-C1 cell viability reduction, dose response, CellTiter-Glo luminescence (AID 1117323); type: functional, cell-based
# [8] = cytotoxicity toward HT-29 cells – cell-based, CellTiter-Glo luminescence, IC50, dose response (AID 1117330); type: functional
# [9] = HCT116 cell viability decrease, GSK3B pretreatment – CellTiter-Glo, IC50, dose response (AID 1117339); type: functional; settings: HCT-116
# [10] = cytotoxicity toward Colo320 cells – cell-based, CellTiter-Glo luminescence, IC50, dose response (AID 1117334); type: functional; settings: COLO 320
# [11] = RKO cell viability reduction, dose response, CellTiter-Glo luminescence (AID 1117322); type: functional
# [12] = CellTiter-Glo luminescent dose response of DLD-1 viability loss (AID 1117352); type: functional
# [13] = molecular target: T2, Aryl hydrocarbon receptor (Homo sapiens, UniProt P35869); settings: Potency;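 further: confirmatory quantitative high-throughput screen measuring activation of the AhR signaling pathway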
# T2 sequence (P35869 whole entry): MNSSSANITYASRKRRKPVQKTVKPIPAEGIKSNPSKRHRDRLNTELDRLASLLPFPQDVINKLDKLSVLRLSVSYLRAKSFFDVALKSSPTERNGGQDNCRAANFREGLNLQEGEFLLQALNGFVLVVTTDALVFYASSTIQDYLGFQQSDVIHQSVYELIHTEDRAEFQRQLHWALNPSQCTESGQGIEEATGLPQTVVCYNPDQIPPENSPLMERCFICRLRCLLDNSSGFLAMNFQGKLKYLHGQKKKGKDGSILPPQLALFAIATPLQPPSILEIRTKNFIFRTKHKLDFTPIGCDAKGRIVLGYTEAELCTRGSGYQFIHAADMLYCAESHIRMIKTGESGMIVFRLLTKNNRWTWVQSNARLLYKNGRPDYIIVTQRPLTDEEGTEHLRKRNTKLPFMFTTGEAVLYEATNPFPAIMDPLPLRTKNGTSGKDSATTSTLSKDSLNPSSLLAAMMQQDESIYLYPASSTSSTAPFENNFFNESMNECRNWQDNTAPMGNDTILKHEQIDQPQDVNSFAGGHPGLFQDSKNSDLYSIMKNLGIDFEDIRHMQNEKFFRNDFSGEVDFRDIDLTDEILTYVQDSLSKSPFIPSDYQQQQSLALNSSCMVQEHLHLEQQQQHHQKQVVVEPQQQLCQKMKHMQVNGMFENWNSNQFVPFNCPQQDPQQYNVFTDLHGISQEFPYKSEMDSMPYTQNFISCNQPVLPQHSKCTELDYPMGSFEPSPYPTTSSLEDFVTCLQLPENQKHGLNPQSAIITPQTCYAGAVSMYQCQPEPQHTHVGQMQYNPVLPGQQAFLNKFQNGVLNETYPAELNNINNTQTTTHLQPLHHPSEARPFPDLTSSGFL
# [14] = Glucagon-like peptide 1 release potency, NCI-H716 cell line, dose-response, half-maximal inhibitory concentration (AID 1117344); type: functional, cell-based
# [15] = half-maximal inhibitory concentration for glucagon-like peptide-1 release, STC-1 cell line, dose-response (AID 1117345); type: functional, cell-based
# [16] = molecular target: T3, Dual specificity protein phosphatase 6 (Rattus norvegicus, UniProt Q64346); test: MKP-3 phosphatase inhibitors, primary screen, biochemical, rat enzyme, in vitro (AID 425)
# T3 sequence (Q64346 whole entry): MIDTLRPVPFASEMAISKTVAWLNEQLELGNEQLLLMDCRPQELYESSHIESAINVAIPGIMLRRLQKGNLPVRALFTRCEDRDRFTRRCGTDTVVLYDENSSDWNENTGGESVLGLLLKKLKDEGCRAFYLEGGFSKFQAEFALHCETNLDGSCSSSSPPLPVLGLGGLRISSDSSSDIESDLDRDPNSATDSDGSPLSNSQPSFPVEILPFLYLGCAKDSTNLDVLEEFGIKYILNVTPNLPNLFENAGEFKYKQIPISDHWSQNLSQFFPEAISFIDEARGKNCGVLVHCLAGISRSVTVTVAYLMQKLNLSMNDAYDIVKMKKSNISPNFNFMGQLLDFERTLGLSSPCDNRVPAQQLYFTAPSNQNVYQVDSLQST
# [17] = molecular target: Heat shock protein HSP90 (Homo sapiens, UniProt P07900+P08238); test: tumor Hsp90 inhibitor potency, dose response (AID 712); type: functional
# [18] = P. falciparum late gametocyte killing, dose response, luminescence (AID 1117278); type: functional, cell-based;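 further: gametocytes exposed to compound for 24 hours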
# [19] = Late stage results for the probe development effort to identify inhibitors of Plasmodium falciparum gametocytes: Luminescence-based cell-based high throughput dose response assay to identify inhibitors of viability of late stage Plasmodium falciparum gametocytes.; type: functional
# [20] = Jurkat T cell cytotoxicity, dose response, cytotoxicity control for P. falciparum gametocyte viability project, luminescence (AID 1117277); type: functional, cell-based;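 further: potency reflects loss of cellular ATP meaning fewer viable cells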
# [21] = molecular target: T4, Small ubiquitin-related modifier 1 (Homo sapiens, UniProt P63165); test: inhibitors of SUMO1 partner interactions, dose response, biochemical, FRET (AID 624383); type: functional; settings: read-out: IC50_Mean
# [22] = molecular target: E3 ubiquitin-protein ligase UHRF1 (Homo sapiens, UniProt Q96T88); test: Counterscreen for inhibitors of 5-meCpG-binding domain protein 2 (MBD2): TRFRET-based biochemical high throughput dose response assay to identify inhibitors of binding of ubiquitin-like with PHD and ring finger domains 1 (UHRF1) to methylated oligonucleotide.
# [23] = molecular target: T5, Histone-lysine N-methyltransferase NSD2 (Homo sapiens, UniProt O96028); type: biochemical
# T5 sequence (O96028 whole entry): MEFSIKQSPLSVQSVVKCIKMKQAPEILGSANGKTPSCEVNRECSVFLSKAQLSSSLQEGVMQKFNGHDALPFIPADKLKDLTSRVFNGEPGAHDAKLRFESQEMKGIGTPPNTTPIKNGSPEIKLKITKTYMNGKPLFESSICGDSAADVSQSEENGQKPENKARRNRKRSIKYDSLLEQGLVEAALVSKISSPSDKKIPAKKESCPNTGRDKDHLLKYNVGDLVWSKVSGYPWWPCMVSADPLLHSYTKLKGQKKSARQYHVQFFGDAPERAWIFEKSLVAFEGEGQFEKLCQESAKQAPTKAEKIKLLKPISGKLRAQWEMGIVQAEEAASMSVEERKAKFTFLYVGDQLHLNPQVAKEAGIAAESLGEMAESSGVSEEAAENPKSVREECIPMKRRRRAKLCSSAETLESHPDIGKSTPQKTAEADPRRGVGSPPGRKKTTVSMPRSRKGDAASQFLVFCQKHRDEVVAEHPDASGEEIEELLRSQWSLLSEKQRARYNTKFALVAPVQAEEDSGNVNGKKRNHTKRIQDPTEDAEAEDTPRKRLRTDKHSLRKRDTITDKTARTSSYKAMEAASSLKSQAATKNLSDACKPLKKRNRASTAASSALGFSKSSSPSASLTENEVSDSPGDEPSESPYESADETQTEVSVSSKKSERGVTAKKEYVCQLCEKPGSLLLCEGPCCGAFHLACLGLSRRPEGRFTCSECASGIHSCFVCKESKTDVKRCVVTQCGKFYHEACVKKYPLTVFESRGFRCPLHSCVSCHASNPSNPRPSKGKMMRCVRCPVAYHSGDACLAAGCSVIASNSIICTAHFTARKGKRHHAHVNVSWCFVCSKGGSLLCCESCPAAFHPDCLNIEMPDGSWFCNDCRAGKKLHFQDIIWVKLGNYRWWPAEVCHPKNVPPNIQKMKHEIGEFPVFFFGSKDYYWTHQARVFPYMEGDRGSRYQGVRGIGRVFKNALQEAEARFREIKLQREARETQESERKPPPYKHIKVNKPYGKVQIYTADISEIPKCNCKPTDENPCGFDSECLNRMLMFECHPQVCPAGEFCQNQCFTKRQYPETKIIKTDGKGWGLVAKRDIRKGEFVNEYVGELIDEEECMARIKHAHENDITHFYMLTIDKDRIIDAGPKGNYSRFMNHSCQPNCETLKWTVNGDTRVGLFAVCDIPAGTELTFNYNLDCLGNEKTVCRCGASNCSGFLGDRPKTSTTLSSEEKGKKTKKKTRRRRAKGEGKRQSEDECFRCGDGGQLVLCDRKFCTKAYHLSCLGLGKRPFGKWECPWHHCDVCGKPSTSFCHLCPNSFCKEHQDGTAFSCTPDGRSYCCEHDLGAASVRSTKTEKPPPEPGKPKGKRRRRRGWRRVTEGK
# [24] = molecular target: T4, Small ubiquitin-related modifier 1; test: inhibitors of SUMO1 peptide binding, dose response, biochemical, fluorescence polarization, uHTS hits (AID 624382); type: functional; settings: read-out: IC50_Mean
# [25] = molecular target: Caspase-6 (Homo sapiens, UniProt P55212); test: human caspase-6 inhibitors, dose response, biochemical, VEID-R110 fluorescence, cherry-pick (AID 720632)
# [26] = P. falciparum Dd2 growth inhibitors, dose response, SYBR Green, dry powder samples, set 4 (AID 1159572); type: functional, cell-based
# [27] = Dose-response inhibition of insulin secretion in a rat insulinoma line at 5 mM glucose (AID 1117331); type: functional, cell-based; settings: INS-1E
# [28] = molecular target: RNA-editing ligase 1, mitochondrial (Trypanosoma brucei brucei, UniProt P86926); test: TbREL1 ligase inhibitors, dose response, biochemical, fluorescence, Trypanosoma brucei (AID 1117295); type: functional
# [29] = molecular target: Glutathione-S-transferase (Schistosoma japonicum, UniProt Q26513); test: biotin-GST/anti-GST TR-FRET signal inhibitors, dose response, artefact control for Vif-APOBEC3G degradation inhibitor project, biochemical (AID 1117362); type: functional
# Chain of Glutathione-S-transferase (Q26513 whole entry): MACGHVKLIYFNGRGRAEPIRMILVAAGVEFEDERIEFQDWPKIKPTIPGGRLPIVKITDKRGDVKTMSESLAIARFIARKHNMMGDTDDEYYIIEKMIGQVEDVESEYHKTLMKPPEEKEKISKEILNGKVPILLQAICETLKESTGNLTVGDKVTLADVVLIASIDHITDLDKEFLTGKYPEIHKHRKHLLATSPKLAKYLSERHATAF
# T4 sequence (P63165 whole entry, the tested form may be a part): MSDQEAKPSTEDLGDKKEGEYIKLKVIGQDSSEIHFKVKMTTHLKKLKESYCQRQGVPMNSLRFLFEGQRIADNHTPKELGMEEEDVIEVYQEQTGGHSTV
# Chain of Sphingosine 1-phosphate receptor 2 (O95136 whole entry): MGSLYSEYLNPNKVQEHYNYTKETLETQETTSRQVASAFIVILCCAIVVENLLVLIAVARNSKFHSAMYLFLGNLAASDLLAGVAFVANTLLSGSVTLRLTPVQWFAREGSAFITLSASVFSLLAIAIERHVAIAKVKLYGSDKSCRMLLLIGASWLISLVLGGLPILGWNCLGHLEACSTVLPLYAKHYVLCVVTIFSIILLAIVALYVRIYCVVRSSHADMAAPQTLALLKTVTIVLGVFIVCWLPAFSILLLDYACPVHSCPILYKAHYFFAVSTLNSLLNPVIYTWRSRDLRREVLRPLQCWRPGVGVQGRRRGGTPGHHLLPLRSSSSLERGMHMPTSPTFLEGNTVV
# Chain of E3 ubiquitin-protein ligase UHRF1 (Q96T88 whole entry, the tested form may be a part): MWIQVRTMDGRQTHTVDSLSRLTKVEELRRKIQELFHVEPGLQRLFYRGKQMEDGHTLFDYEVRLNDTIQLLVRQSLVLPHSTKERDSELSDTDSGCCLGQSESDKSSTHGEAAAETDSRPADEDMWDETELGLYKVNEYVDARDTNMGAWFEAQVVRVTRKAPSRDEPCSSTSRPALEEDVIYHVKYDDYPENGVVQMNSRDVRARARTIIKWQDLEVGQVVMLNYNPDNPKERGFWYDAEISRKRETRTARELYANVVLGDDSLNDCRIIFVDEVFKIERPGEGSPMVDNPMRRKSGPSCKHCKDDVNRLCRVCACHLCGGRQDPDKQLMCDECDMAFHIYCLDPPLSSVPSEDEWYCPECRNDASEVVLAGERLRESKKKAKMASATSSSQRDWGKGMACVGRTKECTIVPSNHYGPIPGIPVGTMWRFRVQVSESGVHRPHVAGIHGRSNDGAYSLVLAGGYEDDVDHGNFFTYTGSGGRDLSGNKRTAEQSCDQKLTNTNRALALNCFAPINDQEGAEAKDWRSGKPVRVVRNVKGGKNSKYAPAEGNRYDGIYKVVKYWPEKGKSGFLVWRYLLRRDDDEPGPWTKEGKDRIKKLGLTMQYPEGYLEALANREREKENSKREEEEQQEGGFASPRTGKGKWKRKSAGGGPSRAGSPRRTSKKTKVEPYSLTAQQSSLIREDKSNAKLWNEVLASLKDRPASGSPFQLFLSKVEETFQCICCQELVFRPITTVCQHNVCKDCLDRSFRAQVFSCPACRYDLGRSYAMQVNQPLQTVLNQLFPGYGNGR
# Chain of Cytochrome P450 2C19 (P33261 whole entry): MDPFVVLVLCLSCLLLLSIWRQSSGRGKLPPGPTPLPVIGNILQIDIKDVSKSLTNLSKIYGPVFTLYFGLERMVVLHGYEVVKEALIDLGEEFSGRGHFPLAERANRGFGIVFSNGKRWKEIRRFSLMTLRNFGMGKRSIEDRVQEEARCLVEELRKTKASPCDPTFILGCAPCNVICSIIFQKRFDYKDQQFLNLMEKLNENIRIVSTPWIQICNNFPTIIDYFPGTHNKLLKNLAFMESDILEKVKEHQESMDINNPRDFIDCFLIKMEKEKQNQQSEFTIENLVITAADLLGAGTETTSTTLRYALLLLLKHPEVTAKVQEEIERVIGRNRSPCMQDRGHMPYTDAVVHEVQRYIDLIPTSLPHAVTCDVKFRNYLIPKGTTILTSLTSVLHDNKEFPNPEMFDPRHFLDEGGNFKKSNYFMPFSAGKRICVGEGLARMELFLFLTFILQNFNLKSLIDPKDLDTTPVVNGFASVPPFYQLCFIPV
# Chain of Caspase-6 (P55212 24-179 limits assumed): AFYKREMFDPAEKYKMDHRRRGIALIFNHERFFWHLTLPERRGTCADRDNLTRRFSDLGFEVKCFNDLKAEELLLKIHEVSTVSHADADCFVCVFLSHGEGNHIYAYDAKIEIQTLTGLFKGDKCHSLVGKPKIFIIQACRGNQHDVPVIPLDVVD
# Chain of Caspase-6 (P55212 194-293 limits assumed): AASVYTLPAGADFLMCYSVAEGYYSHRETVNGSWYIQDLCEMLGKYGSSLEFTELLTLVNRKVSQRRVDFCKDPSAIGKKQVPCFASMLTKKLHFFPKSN
# Chain of RNA-editing ligase 1, mitochondrial (P86926 whole entry): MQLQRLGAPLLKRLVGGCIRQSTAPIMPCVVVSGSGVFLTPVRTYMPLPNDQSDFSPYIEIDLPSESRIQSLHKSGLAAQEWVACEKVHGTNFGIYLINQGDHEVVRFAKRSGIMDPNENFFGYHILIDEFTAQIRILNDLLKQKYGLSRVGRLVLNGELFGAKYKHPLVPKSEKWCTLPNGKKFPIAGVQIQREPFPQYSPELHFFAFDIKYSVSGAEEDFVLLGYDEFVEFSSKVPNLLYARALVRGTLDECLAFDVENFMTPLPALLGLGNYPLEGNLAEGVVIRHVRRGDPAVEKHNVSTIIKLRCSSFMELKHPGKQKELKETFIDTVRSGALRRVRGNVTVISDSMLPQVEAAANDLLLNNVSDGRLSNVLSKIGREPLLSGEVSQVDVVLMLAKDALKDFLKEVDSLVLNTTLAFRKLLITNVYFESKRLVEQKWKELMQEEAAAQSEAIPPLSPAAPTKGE
# Chain of Metabotropic glutamate receptor 7 (Q14831 whole entry): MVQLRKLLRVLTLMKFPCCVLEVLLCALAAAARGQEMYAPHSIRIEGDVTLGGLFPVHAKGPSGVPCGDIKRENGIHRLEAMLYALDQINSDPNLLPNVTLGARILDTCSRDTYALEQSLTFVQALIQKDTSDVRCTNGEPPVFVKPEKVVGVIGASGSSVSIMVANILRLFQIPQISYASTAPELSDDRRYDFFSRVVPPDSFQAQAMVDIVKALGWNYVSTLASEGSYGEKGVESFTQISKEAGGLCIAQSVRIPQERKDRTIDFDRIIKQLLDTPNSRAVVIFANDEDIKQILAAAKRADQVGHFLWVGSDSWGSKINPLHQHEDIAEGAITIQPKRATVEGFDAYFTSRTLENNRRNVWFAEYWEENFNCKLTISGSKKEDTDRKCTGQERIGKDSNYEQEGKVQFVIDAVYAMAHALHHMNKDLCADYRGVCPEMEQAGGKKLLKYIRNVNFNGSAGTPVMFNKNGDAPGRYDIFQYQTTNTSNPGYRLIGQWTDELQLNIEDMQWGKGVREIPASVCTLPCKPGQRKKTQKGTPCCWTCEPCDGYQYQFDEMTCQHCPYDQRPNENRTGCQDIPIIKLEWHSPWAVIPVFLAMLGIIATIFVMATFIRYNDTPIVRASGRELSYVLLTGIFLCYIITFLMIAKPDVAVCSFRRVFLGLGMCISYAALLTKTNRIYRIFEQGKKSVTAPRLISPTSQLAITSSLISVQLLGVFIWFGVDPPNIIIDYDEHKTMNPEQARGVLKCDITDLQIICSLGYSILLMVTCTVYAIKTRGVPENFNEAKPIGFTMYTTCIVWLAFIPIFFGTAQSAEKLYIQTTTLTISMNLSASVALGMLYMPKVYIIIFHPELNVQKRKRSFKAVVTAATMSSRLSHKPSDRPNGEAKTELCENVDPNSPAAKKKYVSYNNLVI
structure (smiles),measurement,setting,value
O=c1c(-c2nc3ccccc3s2)cccn1Cc1ccc(Cl)cc1,AC50,[1],1.41 µM (inconclusive)
same,AC50,[2],1.12 µM (inconclusive)
same,EC50,[3],2.89 µM (active)
COC(=O)c1ccc(-n2c(C)cc(C(=O)COc3ccc(OC(C)=O)cc3)c2C)cc1,EC50,[4],10 µM (active)
O=C(Nc1ccc(Cl)cc1)Nc1ccc(Cl)c(C(F)(F)F)c1 [CLOFLUCARBAN],IC50,[5],0.003 µM (active)
same,IC50,[6],0.009 µM (active)
same,IC50,[7],0.009 µM (active)
same,IC50,[8],0.001 µM (active)
same,IC50,[9],0.003 µM (active)
same,IC50,[10],0.003 µM (active)
same,IC50,[11],0.003 µM (active)
same,IC50,[12],0.027 µM (active)
CC(C)(Oc1ccc(C2CC2(Cl)Cl)cc1)C(=O)O (stereo not given) [CIPROFIBRATE],AC50,[13],70.8 µM (inconclusive)
same,IC50,[14],> 40 µM (inactive)
same,IC50,[15],> 40 µM (inactive)
CCn1nc(-c2cccs2)nc2c(=O)n(C)c(=O)nc1-2,IC50,[16],1.98 µM (active)
same,IC50,[17],5 µM
O=C(Nc1nccs1)c1cn(-c2ccccc2)nc1-c1ccncc1,IC50,[18],9.12 µM (active)
same,IC50,[19],> 37.2 µM (inactive)
same,IC50,[20],> 83.3 µM (inactive)
CCCCn1c(NC(=O)c2ccccc2)c(C#N)c2nc3ccccc3nc21,IC50,[21],17.4 µM (active)
same,IC50,[22],> 43.8 µM (inactive)
same,IC50,[16],> 100 µM (not active)
same,AC50,[23],2.61 µM (active)
same,IC50,[24],> 66.6 µM (inactive)
same,AC50,[25],47.4 µM (active)
COc1ccc2c3c([nH]c2c1)[C@H](CO)N(C(C)=O)CC31CCN(Cc2ccccc2Cl)CC1,AC50,[26],17.1 µM (active)
CCN(CC)C(C)CN1c2ccccc2Sc2ccccc21 (stereo not given) [ETHOPROPAZINE HYDROCHLORIDE],IC50,[27],> 33.3 µM (inactive)
COC(=O)C1=C(C)N(Cc2ccccc2C(F)(F)F)C(NCc2ccc3c(c2)OCO3)=NC1c1cccc(F)c1 (stereo not given),IC50,[28],> 96.6 µM (inactive)
Cc1nc2c(Cl)cccc2c(O)c1CN1CCCC1,IC50,[29],> 100 µM (active)
